According to the supplement of paper PMC10307832:

Assays:
Assay in all cases: relative viability (nuclei count vs DMSO), 5 days (fraction); higher = more cells survive
[1] = compound: CO[C@H]1C[C@@H]2CC[C@@H](C)[C@@](O)(O2)C(=O)C(=O)N2CCCC[C@H]2C(=O)O[C@H]([C@H](C)C[C@@H]2CC[C@@H](OCCO)[C@H](OC)C2)CC(=O)[C@H](C)/C=C(\C)[C@@H](O)[C@@H](OC)C(=O)[C@H](C)C[C@H](C)/C=C/C=C/C=C/1C [Everolimus]
Procedure, shortened: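 A plate was accepted only when its control CV was below 25% and the cells had doubled at least once. Viability is defined from nuclear counts as treated wells divided by vehicle wells, with the median taken across plates. That median covers lung cancer cell lines grown in 1536-well plates, dosed by pinning at five √10-spaced library-drug concentrations, and counted in MetaXpress from 4× Hoechst images after 5 days.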

[2] = compound: CO[C@H]1C[C@@H]2CC[C@@H](C)[C@@](O)(O2)C(=O)C(=O)N2CCCC[C@H]2C(=O)O[C@H]([C@H](C)C[C@@H]2CC[C@@H](OCCO)[C@H](OC)C2)CC(=O)[C@H](C)/C=C(\C)[C@@H](O)[C@@H](OC)C(=O)[C@H](C)C[C@H](C)/C=C/C=C/C=C/1C [Everolimus] + CC1(C)CCC(c2ccc(Cl)cc2)=C(CN2CCN(c3ccc(C(=O)NS(=O)(=O)c4ccc(N[C@H](CCN5CCOCC5)CSc5ccccc5)c(S(=O)(=O)C(F)(F)F)c4)cc3)CC2)C1 [Navitoclax] (partner 0.5 µM)
Procedure, shortened: (§1)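 Five library-drug doses in √10 steps were combined with a fixed anchor-drug dose, or a single drug was given alone, by pin tool to lung cancer cell lines in 1536-well plates the day after seeding. Nuclei were stained and counted after 5 days. Relative viability is the nuclei count in treated wells over that in vehicle wells, taken as the median of duplicate plates.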

[3] = compound: CO[C@H]1C[C@@H]2CC[C@@H](C)[C@@](O)(O2)C(=O)C(=O)N2CCCC[C@H]2C(=O)O[C@H]([C@H](C)C[C@@H]2CC[C@@H](OCCO)[C@H](OC)C2)CC(=O)[C@H](C)/C=C(\C)[C@@H](O)[C@@H](OC)C(=O)[C@H](C)C[C@H](C)/C=C/C=C/C=C/1C [Everolimus] + Cc1cc(Nc2cc(N3CCN(C)CC3)nc(Sc3ccc(NC(=O)C4CC4)cc3)n2)n[nH]1 [Tozasertib] (partner 0.1 µM)
Procedure, shortened: as §1

[4] = compound: CO[C@H]1C[C@@H]2CC[C@@H](C)[C@@](O)(O2)C(=O)C(=O)N2CCCC[C@H]2C(=O)O[C@H]([C@H](C)C[C@@H]2CC[C@@H](OCCO)[C@H](OC)C2)CC(=O)[C@H](C)/C=C(\C)[C@@H](O)[C@@H](OC)C(=O)[C@H](C)C[C@H](C)/C=C/C=C/C=C/1C [Everolimus] + N=C(N)NC(=N)NCCc1ccccc1 [Phenformin] (partner 250 µM)
Procedure, shortened: as §1

Cell Line | relative viability ([1]; 0.01 µM) | relative viability ([1]; 0.03162 µM) | relative viability ([1]; 0.1 µM) | relative viability ([1]; 0.3162 µM) | relative viability ([1]; 1 µM) | relative viability ([2]; first compound 0.01 µM) | relative viability ([2]; first compound 0.03162 µM) | relative viability ([2]; first compound 0.1 µM) | relative viability ([2]; first compound 0.3162 µM) | relative viability ([2]; first compound 1 µM) | relative viability ([3]; first compound 0.01 µM) | relative viability ([3]; first compound 0.03162 µM) | relative viability ([3]; first compound 0.1 µM) | relative viability ([3]; first compound 0.3162 µM) | relative viability ([3]; first compound 1 µM) | relative viability ([4]; first compound 0.01 µM) | relative viability ([4]; first compound 0.03162 µM) | relative viability ([4]; first compound 0.1 µM) | relative viability ([4]; first compound 0.3162 µM) | relative viability ([4]; first compound 1 µM)
NCI-H1993 | 0.675 | 0.61 | 0.596 | 0.685 | 0.626 | 0.687 | 0.676 | 0.631 | 0.585 | 0.717 | 0.482 | 0.508 | 0.573 | 0.521 | 0.485 | 0.525 | 0.498 | 0.533 | 0.468 | 0.454
NCI-H2009 | 0.769 | 0.867 | 0.705 | 0.791 | 0.841 | 1.04 | 1.09 | 0.898 | 0.814 | 0.836 | 0.576 | 0.65 | 0.545 | 0.612 | 0.491 | 0.427 | 0.464 | 0.421 | 0.451 | 0.402
NCI-H2023 | 0.545 | 0.501 | 0.458 | 0.457 | 0.378 | 0.763 | 0.471 | 0.529 | 0.536 | 0.348 | 0.273 | 0.203 | 0.235 | 0.235 | 0.225 | 0.309 | 0.375 | 0.343 | 0.277 | 0.266
NCI-H2085 | 0.848 | 0.865 | 0.692 | 0.735 | 0.689 | 0.73 | 0.811 | 0.66 | 0.83 | 0.705 | 0.81 | 0.723 | 0.602 | 0.656 | 0.557 | 0.573 | 0.559 | 0.395 | 0.503 | 0.521
NCI-H2087 | 0.814 | 0.903 | 0.759 | 0.772 | 0.966 | 0.888 | 0.852 | 0.888 | 0.847 | 0.69 | 0.256 | 0.199 | 0.198 | 0.218 | 0.174 | 0.41 | 0.317 | 0.423 | 0.351 | 0.41
NCI-H2126 | 0.681 | 0.615 | 0.617 | 0.606 | 0.594 | 0.515 | 0.455 | 0.4 | 0.492 | 0.485 | 0.64 | 0.609 | 0.52 | 0.637 | 0.568 | 0.485 | 0.45 | 0.41 | 0.48 | 0.455
NCI-H2170 | 0.459 | 0.45 | 0.428 | 0.459 | 0.464 | 0.235 | 0.22 | 0.202 | 0.184 | 0.236 | 0.443 | 0.428 | 0.461 | 0.518 | 0.399 | 0.388 | 0.402 | 0.387 | 0.403 | 0.414
NCI-H2228 | 0.706 | 0.593 | 0.51 | 0.533 | 0.582 | 0.685 | 0.527 | 0.508 | 0.421 | 0.539 | 0.23 | 0.244 | 0.271 | 0.211 | 0.137 | 0.214 | 0.194 | 0.172 | 0.291 | 0.187
NCI-H2347 | 0.928 | 0.95 | 0.795 | 0.887 | 0.75 | 0.906 | 0.453 | 0.26 | 0.453 | 0.429 | 0.531 | 0.519 | 0.365 | 0.506 | 0.305 | 0.388 | 0.353 | 0.351 | 0.384 | 0.26
NCI-H2405 | 0.791 | 0.774 | 0.731 | 0.767 | 0.74 | 0.672 | 0.63 | 0.53 | 0.662 | 0.452 | 0.832 | 0.729 | 0.717 | 0.762 | 0.657 | 0.364 | 0.353 | 0.33 | 0.335 | 0.382
NCI-H3122 | 0.987 | 0.993 | 0.831 | 0.691 | 0.852 | 1.05 | 0.916 | 0.82 | 0.89 | 0.617 | 0.417 | 0.517 | 0.421 | 0.439 | 0.363 | 0.368 | 0.45 | 0.391 | 0.37 | 0.402
PC-3 [JPC-3] | 1.01 | 1.04 | 0.991 | 0.891 | 0.936 | 0.763 | 0.676 | 0.577 | 0.664 | 0.568 | 0.927 | 0.806 | 0.849 | 0.868 | 0.873 | 0.454 | 0.461 | 0.408 | 0.461 | 0.463
PC-14 | 0.808 | 0.759 | 0.679 | 0.657 | 0.734 | 1.06 | 1.05 | 0.88 | 0.911 | 0.864 | 0.592 | 0.673 | 0.499 | 0.417 | 0.424 | 0.443 | 0.369 | 0.459 | 0.32 | 0.488
RERF-LC-KJ | 0.788 | 0.695 | 0.584 | 0.659 | 0.558 | 0.778 | 0.571 | 0.47 | 0.579 | 0.488 | 0.398 | 0.436 | 0.382 | 0.431 | 0.428 | 0.377 | 0.426 | 0.377 | 0.381 | 0.376
SK-LU-1 | 0.652 | 0.583 | 0.593 | 0.591 | 0.639 | 0.529 | 0.48 | 0.494 | 0.568 | 0.475 | 0.285 | 0.262 | 0.24 | 0.241 | 0.289 | 0.306 | 0.323 | 0.291 | 0.369 | 0.342
SK-MES-1 | 0.755 | 0.75 | 0.74 | 0.663 | 0.622 | 0.948 | 0.688 | – | 0.715 | 0.579 | 0.791 | 0.807 | 0.794 | 0.779 | 0.662 | 0.55 | 0.583 | 0.574 | 0.552 | 0.545
SW 1573 | 0.585 | 0.555 | 0.546 | 0.544 | 0.519 | 0.577 | 0.466 | 0.464 | 0.533 | 0.395 | 0.16 | 0.172 | 0.13 | 0.157 | 0.132 | 0.205 | 0.238 | 0.175 | 0.182 | 0.12
UMC-11 | 0.376 | 0.415 | 0.374 | 0.44 | 0.468 | 0.171 | 0.164 | 0.166 | 0.207 | 0.179 | 0.212 | 0.195 | 0.208 | 0.215 | 0.198 | 0.281 | 0.249 | 0.261 | 0.294 | 0.269
